Tests used:
human recombinant MDH1 = target: T1, human recombinant MDH1 (Homo sapiens, UniProt P40925); experiment: MDH1 enzyme activity assay (oxaloacetate-dependent NADH oxidation); format: biochemical; settings: means of three experiments
T1 construct: purchased BioVision
T1 sequence (P40925 1-334): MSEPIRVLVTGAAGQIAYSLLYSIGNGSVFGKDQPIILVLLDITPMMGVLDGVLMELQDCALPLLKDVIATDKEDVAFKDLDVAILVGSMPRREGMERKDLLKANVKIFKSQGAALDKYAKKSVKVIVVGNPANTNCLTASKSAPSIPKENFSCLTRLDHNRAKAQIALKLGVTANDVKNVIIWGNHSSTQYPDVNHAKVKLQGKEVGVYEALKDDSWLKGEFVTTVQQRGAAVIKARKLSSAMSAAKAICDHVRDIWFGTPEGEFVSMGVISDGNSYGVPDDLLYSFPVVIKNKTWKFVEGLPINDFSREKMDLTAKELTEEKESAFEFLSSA
Text: (§1) To develop the dual inhibitors of MDH1 and MDH2, we screened the newly synthesized LW1497 derivatives using MDH and MDH2 enzyme assays. LW1497 was used as the positive control for the MDH1/2 dual inhibitor. We evaluated the ability of the synthesized compounds to inhibit human recombinant MDH1 and MDH2 enzymatic activity using an oxaloacetate-dependent NADH oxidation assay (Table 1, Table 2, Table 3, Table 4, Table 5 and Table 6). Our SAR optimization strategy focused on four different parts of LW1497: (A) the introduction of various groups at different positions on the amide phenyl ring; (B) the replacement of the 3-(4-(2,4,4-trimethylpentan-2-yl) alkyl chain; (C) the alteration of the amide portion; and (D) the modification of the oxypropanamide linker portion (Figure 1).
(§2) The activities of MDH1 and MDH2 were confirmed using an oxaloacetate-dependent NADH oxidation assay. Experiments were conducted using 100 mM of potassium phosphate buffer (pH 7.4) and human recombinant MDH1 (BioVision) and MDH2 (BioVision), and the results were obtained by measuring the absorbance at 340 nm. Enzyme activity was measured using a plate reader at a wavelength of 340 nm.

A549 cells = experiment: Intracellular ATP content (ATPlite); format: cell-based, human; settings: 6 h
Procedure: Malate transported to the interior of the mitochondria is oxidized to OAA by mitochondrial MDH2, thereby generating NADH, which then enters the ETC to produce ATP. Because inhibition of MAS is expected to reduce ATP production in cancer cells, the total amount of ATP was measured after treatment with compound 50.
A549 cells (1 × 10^4 cells/96-well plate) were incubated for 6 h with or without drugs. After removing the supernatant, an ATP assay was performed using ATPlite (PerkinElmer, Waltham, MA, USA) according to the manufacturer’s instructions. ATP content was measured using a luminometer (Synergy HTX multimode reader, Winoski, VT, USA).

H460 lung cancer cells = experiment: Cell growth inhibition assay (SRB), H460; format: cell-based; settings: Homo sapiens, NCI-H460, means of three experiments, read-out: Cell Viability IC50 H460
Procedure: At the same time, we investigated the effect of the compounds on the growth inhibition of A549 and H460 lung cancer cells bearing KRAS and LKB1 mutations. […] Compound 50 containing a piperidine linker was selected for further analysis.
(§3) Human lung carcinoma A549 cells were cultured in Dulbecco’s modified Eagle’s medium and H460 cells were cultured in RPMI 1640 medium containing 10% fetal bovine serum and 1% penicillin/streptomycin at 37 °C with a 5% Co2 hypoxia experimental condition. The cells were grown in the hypoxia chamber (1% O2, 94% N2, and 5% Co2 in a multigas incubator)
Cell growth inhibition was assessed using sulforhodamine B (SRB) as described in [34]. The cells were fixed with 10% formalin (Sigma-Aldrich) and stained with 0.4% SRB. Protein-bound dye was dissolved in 10 mM of Tris, and its optical density was measured at 540 nm.

[1] = Lactate consumption in treated cells; format: cell-based; settings: cells treated with compound
Text: In contrast, high aerobic glycolysis distinguishes cancer cells from normal cells and has been exploited to detect tumors in vivo. […] Cancer cells consume the secreted lactate to produce ATP through the TCA cycle and oxidative phosphorylation processes. Some cancer cells use lactate as a substrate for TCA intermediates via monocarboxylate transporters (MCT1/4) as well as for ATP production. Lactate can be converted to pyruvate using lactate dehydrogenase (LDH) and can be further converted to acetyl-CoA by […] for fatty acid synthesis.

CD73 [2] = experiment: Western blot of CD73 expression under hypoxia; format: cell-based, human; settings: A549 cells
Procedure: (§4) It has been reported that CD73 expression is induced by HIF-1α under hypoxic conditions. Therefore, we examined whether the expression of CD73 is inhibited by compound 50 under hypoxia in A549 lung cancer cells. […] To confirm the effect of compound 50 on CD73 expression, we performed ELISA for CD73.
as §3
The cells were lysed with RIPA buffer (Millipore, Billerica, MA, USA) containing a protease inhibitor cocktail (Roche, Basel, Switzerland) for 15 min at 4 °C and centrifuged at 12,000 rpm for 10 min. The lysates were quantified using a protein assay kit (Bio-Rad, Hercules, CA, USA). The lysates were subjected to an SDS-PAGE analysis and transferred to PVDF membranes (Millipore, Billerica, MA, USA). The proteins were identified using the appropriate antibodies: HIF-1α (BD Transduction Laboratories, San Diego, CA, USA), pyruvate dehydrogenase kinase 1 (PDK1) (Cell Signaling, Danvers, MA, USA), GLUT1 and β-action (Santa Cruz Biotechnology, Danvers, MA, USA), and CD73 (Proteintech, Rosemont, IL, USA).

human recombinant MDH2 = target: T2, human recombinant MDH2 (Homo sapiens, UniProt P40926); experiment: MDH2 enzyme activity assay (oxaloacetate-dependent NADH oxidation); format: biochemical; settings: means of three experiments
T2 construct: purchased BioVision
T2 sequence (P40926 25-338): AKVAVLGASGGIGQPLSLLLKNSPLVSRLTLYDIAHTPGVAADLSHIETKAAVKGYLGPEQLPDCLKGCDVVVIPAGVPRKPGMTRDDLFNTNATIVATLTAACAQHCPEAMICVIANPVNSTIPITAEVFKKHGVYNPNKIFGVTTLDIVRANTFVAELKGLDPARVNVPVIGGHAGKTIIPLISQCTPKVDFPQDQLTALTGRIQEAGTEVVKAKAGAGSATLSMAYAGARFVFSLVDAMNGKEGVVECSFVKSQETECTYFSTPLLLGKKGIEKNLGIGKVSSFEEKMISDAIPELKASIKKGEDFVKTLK
Text: as §1, §2

CD73 [3] = experiment: CD73 ELISA; format: cell-based, human; settings: A549 cells; for CD73 level (%): hypoxic conditions, 0 μM = 100
Procedure: as §4
The prepared samples were incubated with the same amount of antibody cocktail for 1 h at room temperature and then washed three times with PT buffer. After washing, the plates were developed by adding 100 µL of TMB development solution, and the reaction was stopped by adding 100 µL of stop solution. The amount of CD73 was quantitatively measured according to the instructions on the Human CD73 Simplestep ELISA kit (Abcam, Cambridge, UK).

In the case of `CC(C)(C)CC(C)(C)c1ccc(N2CCC(C(=O)Nc3cccc(OC(F)(F)F)c3)CC2)cc1` [Compound 50, N-(3-(Trifluoromethoxy)phenyl)-1-(4-(2,4,4-trimethylpentan-2-yl)phenyl)piperidine-4-carboxamide], the IC50 (human recombinant MDH1) is reported as 3.33 ± 0.18 µM, the ATP level (A549 cells) is reported as “reduced ATP level” and the melting point is reported as 139 to 140 °C. For the same molecule, the IC50 (H460 lung cancer cells) was 3.67 ± 0.06 µM, the Lactate consumption [1] was “did not change significantly” and the “CD73 expression increased by HIF-1α” value (CD73 [2]) was “significantly decreased”. The IC50 (human recombinant MDH2) was 2.24 ± 0.09 µM, the CD73 levels (CD73 [3]; ELISA) was “reduced CD73 levels in A549 cells in a dose-dependent manner” and the “CD73 level (%)” value (CD73 [3]; 2.5 μM) was 90%. For the same molecule, the “CD73 level (%)” value (CD73 [3]; 5.0 μM) was 84% and the “CD73 level (%)” value (CD73 [3]; 10 μM) was 68%.

Source: PMC10263210, “Design, Synthesis and Biological Evaluation of Novel MDH Inhibitors Targeting Tumor Microenvironment” (Pharmaceuticals, 2023)
